The target of data set [1] is T1, human serum albumin (hSA) (Homo sapiens, UniProt P02768).
T1 construct: purchased Albumin Bioscience (Huntsville, AL, USA)
The data set can be described thus: Competitive ITC with hSA saturated with ibuprofen or warfarin. The conditions noted are these: for titration profile to hSA saturated with War: 200 μM War; for titration profile to hSA saturated with War / titration profile to Ibu-saturated hSA: PFAS 4 mM titrant; for titration profile to Ibu-saturated hSA: 250 μM Ibu; for preferably occupied hSA binding sites: concluded from stoichiometry and competition with Ibu. It counts as binding. The method, then: (§1) ITC experiments were performed using a Microcal PEAQ-ITC instrument (Malvern Panalytical, Malvern, UK). Both dhSA (110 μM) and ligands (HPFO-DA, C6O4, PFHxA, Ibu, and War, 4 mM solutions) were dissolved in 50 mM NaPi, 100 mM NaCl, pH 7.4. Only in the case of War, 2.5% v/v DMSO was added to the buffer to improve its solubility. All working solutions were properly degassed. Titrations of dhSA with ligands were carried out at different temperatures (298 and 310 K). In each experiment, an initial 0.4 μL injection (excluded from subsequent data analysis) was followed by 25 independent injections of 1.5 μL with a stirring rate of 750 rpm to ensure rapid mixing. A 120 s interval between injections was applied to guarantee the equilibrium at each titration point. Blank experiments (ligands against buffer) were carried out for each ligand and subtracted to corresponding titrations in order to screen dilution heat contributions. Competition experiments were conducted by adding saturating concentrations of albumin-binding drugs (either 250 μM Ibu or 200 μM War) to dhSA in the measure cell and titrating each PFAS (4 mM) with the aforementioned instrumental parameters. Data were analyzed using the MicroCal PEAQ-ITC Evaluation software (Malvern Panalytical, Malvern, UK). Integrated heat signals were fitted to “one set of sites” (C6O4, PFHxA), “two sets of sites” (PFOA), or “sequential” (HPFO-DA) binding models. Values for the binding affinity constant (KA = 1/KD) and enthalpy change (ΔH), together with the stoichiometry of each PFAS-dhSA reaction, were obtained from curve fitting. Free energy and the entropy change (ΔS) were calculated from the Gibbs free energy (ΔG) relationships: ΔG = ΔH – TΔS = −RT ln(KA).
These include ibuprofen (Ibu) and warfarin (War), two well-characterized molecules known to share the same fatty acid-binding sites (FA4 and FA6 for Ibu, FA7 for War) with long-chain PFASs (Figure 2a).[45] Again, the short-chain perfluoroalkyl compound PFHxA was included as the control. […] The results are consistent with those previously reported that identified the ibuprofen-binding pocket as a preferable cavity to lodge polyfluoroalkyl compounds.[45]

The target in data set [2] is T1, human serum albumin (hSA). The data set can be described thus: Isothermal titration calorimetry (ITC) of PFAS binding to defatted hSA. The method, then: as §1
Data set [3] concerns the target T1, human serum albumin (hSA). The data set can be described thus: Crystal structure of hSA in complex with HPFO-DA and Myr (PDB 7Z57). It is filed as binding. To be noted: ternary complex hSA-HPFO-DA-Myr, 1:20:5 molar ratio. The method, then: Crystallization trials of dhSA in complex with HPFO-DA, C6O4 and sodium myristate (Myr) were carried out at 285 K in an MRC maxi 48-well crystallization plate (Hampton Research, Aliso Viejo, CA, USA) using the sitting-drop vapor-diffusion method and the Morpheus MD1–46 protein crystallization screen kit (Molecular Dimensions Ltd., Catcliffe, UK). Droplets of 1.6 μL volume (0.8 μL of protein complex and 0.8 μL of reservoir solution) were set up using an Oryx 8 crystallization robot (Douglas Instruments Ltd., Catcliffe, UK) and equilibrated against 120 μL reservoir solution. In all the cases, best crystals were obtained by streak- or micro-seeding and left for 5–7 days. Crystals of dhSA (1 mM) incubated with a 20-fold molar excess of HPFO-DA (20 mM) and a fivefold molar excess of Myr (5 mM) were obtained using the following precipitant agents: 50 mM bicine, 50 mM Trizma base, 30 mM sodium fluoride, 30 mM sodium bromide, 30 mM sodium iodide, 12.5% v/v MPD, 12.5% w/v PEG 1000, and 12.5% w/v PEG 3350 pH 8.5. […]
The structure was solved by molecular replacement with software PHASER[49] using as a template the model 7AAI.[45] […] Intramolecular and intermolecular hydrogen bond interactions were analyzed by PROFUNC,[53] […]

For data set [4] the following is noted: environmentally exposed human populations; cited from earlier work.
Where [5] appears, read: 310 K, sequential binding, first binding event.
[6] abbreviates: 310 K, sequential binding, second binding event.
Where [7] appears, read: 298 K, two sets of sites, high-affinity sites.
Setting [8] is: 298 K, two sets of sites, low-affinity sites.
Where [9] appears, read: 310 K, two sets of sites, high-affinity sites.
Where [10] appears, read: 310 K, two sets of sites, low-affinity sites.

Molecules are shown by their SMILES. Values joined by “and” are separate entries in the source; they are usually repeats but may differ in a detail not shown here. Identical values can stand only once. Like-named read-outs stand apart in the source and are kept apart here.

T1 sequence (P02768 25-609): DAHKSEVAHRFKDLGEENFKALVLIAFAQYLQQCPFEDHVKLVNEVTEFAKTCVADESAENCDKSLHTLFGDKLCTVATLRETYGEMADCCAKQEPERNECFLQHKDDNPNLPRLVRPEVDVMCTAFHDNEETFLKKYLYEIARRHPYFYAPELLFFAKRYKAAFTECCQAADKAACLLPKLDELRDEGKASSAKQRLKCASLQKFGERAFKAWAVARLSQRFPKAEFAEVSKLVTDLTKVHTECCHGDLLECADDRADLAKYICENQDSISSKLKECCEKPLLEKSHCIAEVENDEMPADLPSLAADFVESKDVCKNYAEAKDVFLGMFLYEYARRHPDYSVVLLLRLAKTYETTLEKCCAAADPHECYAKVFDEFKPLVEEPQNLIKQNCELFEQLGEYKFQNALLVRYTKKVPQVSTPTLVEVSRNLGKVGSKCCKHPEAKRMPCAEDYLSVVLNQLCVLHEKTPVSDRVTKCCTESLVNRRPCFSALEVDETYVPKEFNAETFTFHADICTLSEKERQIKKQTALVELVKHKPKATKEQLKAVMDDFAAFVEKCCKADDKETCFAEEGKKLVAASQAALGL

Take `O=C(O)C(F)(OC(F)(F)C(F)(F)C(F)(F)F)C(F)(F)F` (stereo not drawn) [HPFO-DA, 2,3,3,3-tetrafluoro-2-(heptafluoropropoxy) propanoic acid]: in data set [1], the “titration profile to hSA saturated with War” value (“titration profile … with War” for short) was “comparable to that of hSA in the absence of competitive drug”. In addition, the “titration profile to Ibu-saturated hSA” value in data set [1] is reported as “nearly saturated flat curve”. The “preferably occupied hSA binding sites” value in data set [1] is reported as “FA4 and/or FA6 sites”. Moreover, the “fold lower binding affinity (KD) compared to PFOA high-affinity sites” value in data set [2] (298 K) is on record as roughly 47 fold. Besides, the ΔH2 is 8.08 kcal/mol and 8.08 ± 0.454 kcal/mol in data set [2] (298 K, sequential binding, second binding event); 6.74 ± 0.669 kcal/mol in data set [2] (setting [6]). Besides, the ΔH1 result in data set [2] (setting [5]) is on record as “–23.2 ± 3.4 kJ/mol”. The “–TΔS1” value in data set [2] (setting [5]) is on record as “–6.54 kJ/mol”. In addition, in data set [2] (setting [6]), the “–TΔS2” value was “–55.4 kJ/mol”. Moreover, the Kd in data set [2] (KD1, 298 K, sequential binding, first binding event) is 19 ± 1.3 µM; in data set [2] (KD1, 310 K, sequential binding, first binding event) it was 9.9 ± 2.3 µM; in data set [2] (KD2, 310 K, sequential binding, second binding event), 27 ± 8.1 µM; in data set [2] (human, pH 7.4, KD2, 298 K, sequential binding, second binding event), greater than 80 µM; in data set [2] (read-out: KD2, 298 K, sequential binding, second binding event) it was 84.2 ± 14.6 µM. Besides, the “number of distinct binding sites occupied in crystal structure” value in data set [3] is reported as “two”.

As for `O=C(O)C(F)(F)C(F)(F)C(F)(F)C(F)(F)C(F)(F)C(F)(F)C(F)(F)F` [PFOA, perfluorooctanoic acid], the “n (stoichiometry)” value was determined as 0.89 ± 0.30 in data set [2] (setting [7]), 0.95 ± 0.2 in data set [2] (setting [9]) and 9.5 ± 0.20 in data set [2] (setting [10]). For the same compound, the ΔG result in data set [2] (setting [7]) is reported as “–36.10 kJ/mol”; in data set [2] (setting [8]), “–26.60 kJ/mol”; in data set [2] (setting [9]), “–38.10 kJ/mol”; in data set [2] (setting [10]) it was “–29.10 kJ/mol”. Besides, the “–TΔS” value in data set [2] (setting [7]) was “–17.70 kJ/mol”; in data set [2] (setting [8]), “–28.2 kJ/mol”; in data set [2] (setting [9]) it was “–21.6 kJ/mol”; in data set [2] (setting [10]), “–31.30 kJ/mol”. In addition, the figures for the ΔH entry in data set [2] (setting [9]) and in data set [2] (setting [10]) were “–16.5 ± 1.9 kJ/mol” and “–2.26 ± 0.75 kJ/mol”, respectively. Besides, the Kd in data set [2] (KD, 298 K, two sets of sites, low-affinity sites) is 29.7 ± 1.7 µM; in data set [2] (KD, 310 K, two sets of sites, low-affinity sites) it was 46 ± 2 µM; in data set [2] (human, pH 7.4, KD, 298 K, two sets of sites, high-affinity sites), 0.4 ± 0.01 µM; in data set [2] (human, pH 7.4, KD, 310 K, two sets of sites, high-affinity sites), 39.3 ± 0.4 µM. Moreover, in data set [4], the “average half-life for serum elimination” value is given as 1–5 years.

For the compound `CCCCCCCCCCCCCC(=O)O` [Myr, sodium myristate], the “number of distinct binding sites occupied in crystal structure” value in data set [3] is on record as “four”.

For the compound `O=C(O)C(F)(F)C(F)(F)C(F)(F)C(F)(F)C(F)(F)F` [PFHxA, Perfluorohexanoic acid], in data set [1], the “titration profile … with War” value is “comparable to that of hSA in the absence of competitive drug”, the “titration profile to Ibu-saturated hSA” value is “nearly saturated flat curve” and the “preferably occupied hSA binding sites” value was “FA4 and/or FA6 sites”. For the same compound, in data set [2] (298 K, one set of sites), the “n (stoichiometry)” value turned out to be 1.02 ± 0.05, the ΔG entry is on record as “–30.60 kJ/mol” and the ΔH result is on record as “–34.1 ± 7.40 kJ/mol”. In data set [2] (310 K, one set of sites), the “n (stoichiometry)” value was 1.03 ± 0.05, the ΔG result is recorded as “–31.70 kJ/mol”, the ΔH result is “–39.2 ± 2.00 kJ/mol” and the “–TΔS” value was determined as 1.84 kcal/mol. Further, the Kd in data set [2] (KD, 298 K, one set of sites) was determined as 4.5 ± 2.1 µM. Besides, the Kd in data set [2] (KD, 310 K, one set of sites) worked out at 5.9 ± 0.7 µM.

For `O=S(=O)(O)C(F)(F)C(F)(F)C(F)(F)C(F)(F)C(F)(F)C(F)(F)C(F)(F)C(F)(F)F` [PFOS, perfluorooctanesulfonic acid], the “average half-life for serum elimination” value in data set [4] was 1–5 years.

Regarding `O=C(O)C(F)(F)OC1(F)OC(F)(F)OC1(F)OC(F)(F)F` (stereo not drawn) [C6O4, perfluoro ([5-methoxy-1,3-dioxolan-4-yl]oxy) acetic acid], in data set [1], the “titration profile … with War” value is “comparable to that of hSA in the absence of competitive drug”, the “titration profile to Ibu-saturated hSA” value is “nearly saturated flat curve” and the “preferably occupied hSA binding sites” value is on record as “FA4 and/or FA6 sites”. In data set [2] (298 K, one set of sites), the “n (stoichiometry)” value is listed as 1.6 ± 0.2, the ΔG result is “–32.10 kJ/mol”, the ΔH entry is given as “–21.4 ± 1.4 kJ/mol” and the “–TΔS” value is listed as “–10.7 kJ/mol”. In data set [2] (310 K, one set of sites), the “n (stoichiometry)” value amounted to 1.5 ± 0.3, the ΔG entry is reported as “–31.70 kJ/mol”, the ΔH result was “–25.8 ± 4.2 kJ/mol” and the “–TΔS” value is 0.406 kcal/mol. Besides, the Kd in data set [2] (KD, 298 K, one set of sites) was determined as 2.4 ± 0.1 µM. Further, the Kd in data set [2] (KD, 310 K, one set of sites) came out at 5.4 ± 2.1 µM.
